From patent US6911542B2, “Pyrazino[1′,2′:1,6]pyrido[3,4b]indole derivatives” (Lilly Icos LLC., priority 2000, dated 2005)

What was measured:
[1] = target: T1, PDE5 obtained from bovine aorta (Bos taurus, UniProt Q28156); assay: cGMP-PDE inhibition assay using PDE5 obtained from bovine aorta; type: biochemical; conditions: read-out: PDE5 IC50 (Bov. aorta)
T1 construct: from tissue; host or cells: bovine aorta
Procedure: (§1) cGMP-PDE activity of compounds of the present invention was measured using a one-step assay adapted from Wells et al., Biochim. Biophys. Acta, 384, 430 (1975). The reaction medium contained 50 mM Tris-HCl, pH 7.5, 5 mM magnesium acetate, 250 μg/ml 5′-Nucleotidase, 1 mM EGTA, and 0.15 μM 8-[H^3]-cGMP. Unless otherwise indicated, the enzyme used was a human recombinant PDE5 (ICOS Corp., Bothell, Wash.).
(§2) Compounds of the invention were dissolved in DMSO finally present at 2% in the assay.

[2] = target: T2, human recombinant PDE5 (Homo sapiens, UniProt O76074); assay: cGMP-PDE one-step inhibition assay, human recombinant PDE5; type: biochemical; conditions: 0.15 μM 8-[H3]-cGMP, 30 min incubation
T2 construct: host or cells: Saccharomyces cerevisiae, protease-deficient strain BJ2-54 (ATCC 74465)
Procedure: The compounds of structural formula (I) were tested for an ability to inhibit PDE5. The ability of a compound to inhibit PDE5 activity is related to the IC50 value for the compound, i.e., the concentration of inhibitor required for 50% inhibition of enzyme activity. The IC50 value for compounds of structural formula (I) were determined using recombinant human PDE5.
The production of recombinant human PDEs and the IC50 determinations can be accomplished by well-known methods in the art. Exemplary methods are described as follows:
Recombinant production of human PDE1B, PDE2, PDE4A, PDE4B, PDE4C, PDE4D, PDE5, and PDE7 was carried out similarly to that described in Example 7 of U.S. Pat. No. 5,702,936, incorporated herein by reference, except that the yeast transformation vector employed, which is derived from the basic ADH2 plasmid described in Price et al., Methods in Enzymology, 185, pp. 308-318 (1990), incorporated yeast ADH2 promoter and terminator sequences and the Saccharomyces cerevisiae host was the protease-deficient strain BJ2-54 deposited on Aug. 31, 1998 with the American Type Culture Collection, Manassas, Va., under accession number ATCC 74465. Transformed host cells were grown in 2×SC-leu medium, pH 6.2, with trace metals, and vitamins. After 24 hours, YEP medium-containing glycerol was added to a final concentration of 2×YET/3% glycerol. Approximately 24 hr later, cells were harvested, washed, and stored at −70° C. […]
Cell pellets (29 g) were thawed on ice with an equal volume of Lysis Buffer (25 mM Tris HCl, pH 8, 5 mM MgCl2, 0.25 mM DTT, 1 mM benzamidine, and 10 μM ZnSO4). Cells were lysed in a Microfluidizer® (Microfluidics Corp.) using nitrogen at 20,000 psi. The lysate was centrifuged and filtered through 0.45 μm disposable filters. The filtrate was applied to a 150 mL column of Q SEPHAROSE® Fast-Flow (Pharmacia). The column was washed with 1.5 volumes of Buffer A (20 mM Bis-Tris Propane, pH 6.8, 1 mM MgCl2, 0.25 mM DTT, 10 μM ZnSO4) and eluted with a step gradient of 125 mM NaCl in Buffer A followed by a linear gradient of 125-1000 mM NaCl in Buffer A. Active fractions from the linear gradient were applied to a 180 mL hydroxyapatite column in Buffer B (20 mM Bis-Tris Propane (pH 6.8), 1 mM MgCl2, 0.25 mM DTT, 10 μM ZnSO4, and 250 mM KCl). After loading, the column was washed with 2 volumes of Buffer B and eluted with a linear gradient of 0-125 mM potassium phosphate in Buffer B. Active fractions were pooled, precipitated with 60% ammonium sulfate, and resuspended in Buffer C (20 mM Bis-Tris Propane, pH 6.8, 125 mM NaCl, 0.5 mM DTT, and 10 μM ZnSO4). The pool was applied to a 140 mL column of […]® S-300 HR and eluted with Buffer C. Active fractions were diluted to 50% glycerol and stored at −20° C.
as §1, §2

Work on `COc1ccc([C@@H]2c3[nH]c4ccccc4c3C[C@@H]3C(=O)N(CCCN4CCN(C)CC4)CC(=O)N23)cc1` [Example 12] yielded an IC50 [1] of 0.1 µM.

In the case of `O=C1[C@H]2Cc3c([nH]c4ccccc34)[C@@H](c3ccc4c(c3)OCO4)N2C(=O)CN1O` [Example 2, (6R,12aR)-6-Benzo[1,3]dioxo-5-yl-2-hydroxy-2,3,6,7,12,12a-hexahydropyrazino[1′,2′:1,6]-pyrido[3,4-b]indole-1,4-dione], the IC50 [2] is reported as 0.0075 µM and the melting point is reported as 276 to 283 °C (dec.).

Molecule `COC(=O)CN1CC(=O)N2[C@H](c3ccc4c(c3)OCO4)c3[nH]c4ccccc4c3C[C@@H]2C1=O` [Example 19] has an IC50 [1] of 0.004 µM.

Molecule `COc1ccc([C@@H]2c3[nH]c4ccccc4c3C[C@@H]3C(=O)N(CCN(C)C)CC(=O)N23)cc1` [Example 9] has an IC50 [1] of 0.07 µM.

In the case of `NC(=O)CN1CC(=O)N2[C@H](c3ccc4c(c3)OCO4)c3[nH]c4ccccc4c3C[C@@H]2C1=O` [Example 20], the IC50 [1] is reported as 0.01 µM.

Work on `COc1ccc([C@@H]2c3[nH]c4ccccc4c3C[C@@H]3C(=O)N(CCCN(C)C)CC(=O)N23)cc1` [Example 11] yielded an IC50 [1] of 0.65 µM.

Work on `CC(C)(C)OC(=O)CCN1CC(=O)N2[C@H](c3ccc4c(c3)OCO4)c3[nH]c4ccccc4c3C[C@@H]2C1=O` [Example 71] yielded an IC50 [2] of 0.01 µM.

`O=C1[C@H]2Cc3c([nH]c4ccccc34)[C@@H](c3ccc4c(c3)OCO4)N2C(=O)CN1CCO` [Example 10] showed an IC50 [1] of 0.005 µM.

For `O=C1[C@H]2Cc3c([nH]c4ccccc34)[C@@H](c3ccc4c(c3)OCO4)N2C(=O)CN1CCOCCO` [Example 40], the IC50 [2] was 0.01 µM.
